The values below come from ChEMBL document CHEMBL2429821, “A Casein kinase 1/Checkpoint kinase 1 pyrazolo-pyridine protein kinase inhibitor as novel activator of the p53 pathway” (Bioorg Med Chem Lett, 2013).

Structures are written as SMILES. Active and inactive are the calls of the source. The rule behind the calls is not given here.

The subject of one assay is HCT-116. The assay can be described thus: Cytotoxicity against human HCT116 cells expressing p53 assessed as cell viability at 1 to 32 uM after 24 hrs by MTT assay. Format: functional, cell-based. In general terms: Tetrazolium dyes change colour on reduction, which living cells bring about.
Assay [1] deals with A-375. The assay can be described thus: Cell cycle arrest in human A375 cells assessed as accumulation at G2-M phase at 20 uM after 48 hrs by FACS flow cytometric analysis (reference value: 17.3%). The class given is functional.
In assay [2] the test system is A-375. The assay can be described thus: Cell cycle arrest in human A375 cells assessed as accumulation at S phase at 80 uM after 48 hrs by FACS flow cytometric analysis (reference value: 25.1%). Format: functional.
Assay [3] deals with A-375. Description: Cell cycle arrest in human A375 cells assessed as accumulation at S phase at 5 uM after 48 hrs by FACS flow cytometric analysis (reference value: 25.1%). The class given is functional. Background: In flow cytometry, cells or beads pass a laser one at a time.
The target in assay [4] is Casein kinase I isoform delta (Rattus norvegicus, UniProt Q06486). The assay can be described thus: Inhibition of rat CK1delta in presence of 20 uM ATP.
Sequence of Casein kinase I isoform delta (Q06486 whole entry, canonical isoform): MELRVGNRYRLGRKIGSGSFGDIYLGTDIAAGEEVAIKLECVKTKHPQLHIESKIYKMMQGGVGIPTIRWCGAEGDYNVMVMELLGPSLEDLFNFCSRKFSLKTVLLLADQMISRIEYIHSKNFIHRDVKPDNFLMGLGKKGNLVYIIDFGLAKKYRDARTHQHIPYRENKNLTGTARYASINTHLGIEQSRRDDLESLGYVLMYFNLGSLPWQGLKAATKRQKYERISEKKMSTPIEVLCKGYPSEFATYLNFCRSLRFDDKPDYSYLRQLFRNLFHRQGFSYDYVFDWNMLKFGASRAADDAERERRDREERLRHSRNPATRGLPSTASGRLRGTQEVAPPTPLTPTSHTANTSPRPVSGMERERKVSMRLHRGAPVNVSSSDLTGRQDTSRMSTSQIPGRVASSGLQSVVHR
The target in assay [5] is T1, Mitogen-activated protein kinase 12 (Homo sapiens) (UniProt P53778).
T1 sequence (whole entry): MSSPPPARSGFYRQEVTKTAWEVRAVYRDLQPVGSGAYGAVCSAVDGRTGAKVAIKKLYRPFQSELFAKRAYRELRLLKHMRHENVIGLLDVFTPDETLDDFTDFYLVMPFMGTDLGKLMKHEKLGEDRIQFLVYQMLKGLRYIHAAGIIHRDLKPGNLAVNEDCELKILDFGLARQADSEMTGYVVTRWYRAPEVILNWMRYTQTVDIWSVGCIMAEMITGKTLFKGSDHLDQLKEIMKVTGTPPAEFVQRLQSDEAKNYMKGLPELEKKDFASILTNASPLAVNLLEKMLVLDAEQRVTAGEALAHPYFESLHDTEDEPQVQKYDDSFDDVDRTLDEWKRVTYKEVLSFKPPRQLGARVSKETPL
Description: Inhibition of human p38gamma MAPK assessed as residual activity at 10 uM relative to control.

The target in assay [6] is T2, Serine/threonine-protein kinase Chk1 (Homo sapiens, UniProt O14757).
T2 sequence (O14757 whole entry): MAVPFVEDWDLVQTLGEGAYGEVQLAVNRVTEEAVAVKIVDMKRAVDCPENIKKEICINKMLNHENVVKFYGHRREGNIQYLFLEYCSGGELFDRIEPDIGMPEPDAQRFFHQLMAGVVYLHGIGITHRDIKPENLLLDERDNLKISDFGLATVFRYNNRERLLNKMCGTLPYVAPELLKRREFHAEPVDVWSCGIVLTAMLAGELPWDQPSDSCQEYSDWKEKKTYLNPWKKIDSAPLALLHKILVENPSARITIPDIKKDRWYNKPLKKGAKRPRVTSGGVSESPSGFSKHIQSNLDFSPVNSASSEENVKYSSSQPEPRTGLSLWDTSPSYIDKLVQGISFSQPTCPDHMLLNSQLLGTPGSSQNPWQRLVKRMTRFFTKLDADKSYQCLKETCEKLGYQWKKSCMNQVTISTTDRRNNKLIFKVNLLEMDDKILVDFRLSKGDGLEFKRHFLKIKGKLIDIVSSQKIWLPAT
The assay can be described thus: Inhibition of human CHK1 in presence of 20 uM ATP.

Assay [7] has as its target Serine/threonine-protein kinase pim-2 (Homo sapiens) (UniProt Q9P1W9). The assay can be described thus: Inhibition of human PIM2 assessed as residual activity at 1 uM relative to control.
The target in assay [8] is Mitogen-activated protein kinase 1 (Homo sapiens) (UniProt P28482). Description: Inhibition of human MAPK2 assessed as residual activity at 10 uM relative to control.
Sequence of Mitogen-activated protein kinase 1 (Homo sapiens) (P28482 whole entry): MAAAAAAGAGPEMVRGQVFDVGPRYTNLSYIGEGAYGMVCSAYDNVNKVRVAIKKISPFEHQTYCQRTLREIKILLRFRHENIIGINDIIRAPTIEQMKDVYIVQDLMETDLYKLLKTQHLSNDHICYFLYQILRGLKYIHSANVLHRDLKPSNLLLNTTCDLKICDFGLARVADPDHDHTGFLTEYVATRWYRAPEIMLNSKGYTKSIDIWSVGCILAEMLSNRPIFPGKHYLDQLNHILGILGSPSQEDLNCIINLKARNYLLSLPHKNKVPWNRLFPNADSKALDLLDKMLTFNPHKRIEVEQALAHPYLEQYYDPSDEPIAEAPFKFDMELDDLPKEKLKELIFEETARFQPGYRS
Assay [9] concerns the target MAP kinase-activated protein kinase 2 (Homo sapiens) (UniProt P49137). Description: Inhibition of human MAPKAPK2 assessed as residual activity at 10 uM relative to control.
Assay [10] concerns the target T3, Casein kinase I/MDM2 (Homo sapiens) (UniProt Q00987+P48729). Description: Inhibition of CK1-MDM2 complex in human A375 cells assessed as increase in p21 protein level at 0.2 to 5 uM after 48 hrs by immunoblotting analysis. The class given is cell-based. The following applies: A-375. (A western blot detects proteins with antibodies after separation by electrophoresis.)

In assay [11] the test system is A-375. The assay can be described thus: Cell cycle arrest in human A375 cells assessed as accumulation at sub-G1 phase at 1 uM after 48 hrs by FACS flow cytometric analysis (reference value: 2.17%). The class given is functional.
Assay [12] relates to A-375. The assay can be described thus: Cell cycle arrest in human A375 cells assessed as accumulation at G0-G1 phase at 80 uM after 48 hrs by FACS flow cytometric analysis (reference value: 55.4%). The class given is functional.
The target in assay [13] is Mitogen-activated protein kinase 1 (Homo sapiens) (UniProt P28482). The assay can be described thus: Inhibition of human MAPK2 assessed as residual activity at 1 uM relative to control.
The test system of assay [14] is A-375. Description: Cell cycle arrest in human A375 cells assessed as accumulation at G0-G1 phase at 20 uM after 48 hrs by FACS flow cytometric analysis (reference value: 55.4%). Format: functional.
Assay [15] has as its target T4, Mitogen-activated protein kinase 15 (Homo sapiens) (UniProt Q8TD08).
T4 sequence (whole entry): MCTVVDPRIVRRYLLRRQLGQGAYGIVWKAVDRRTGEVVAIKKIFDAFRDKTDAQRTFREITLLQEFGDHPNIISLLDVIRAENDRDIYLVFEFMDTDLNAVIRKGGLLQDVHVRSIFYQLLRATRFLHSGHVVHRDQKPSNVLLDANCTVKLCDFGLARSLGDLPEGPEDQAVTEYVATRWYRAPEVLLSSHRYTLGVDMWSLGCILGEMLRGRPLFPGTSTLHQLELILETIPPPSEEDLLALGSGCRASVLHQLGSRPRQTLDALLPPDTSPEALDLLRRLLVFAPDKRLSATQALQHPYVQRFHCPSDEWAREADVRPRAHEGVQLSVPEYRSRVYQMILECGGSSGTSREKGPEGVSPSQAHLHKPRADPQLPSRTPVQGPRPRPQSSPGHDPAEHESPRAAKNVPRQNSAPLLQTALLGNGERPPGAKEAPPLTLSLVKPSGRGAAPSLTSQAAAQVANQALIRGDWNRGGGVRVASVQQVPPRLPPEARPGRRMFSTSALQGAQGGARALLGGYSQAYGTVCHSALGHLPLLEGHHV
The assay can be described thus: Inhibition of human ERK8 assessed as residual activity at 1 uM relative to control.

The species entered for another assay is Homo sapiens. The assay can be described thus: Inhibition of human VEGFR assessed as residual activity at 10 uM relative to control.
Assay [16] concerns the target Mitogen-activated protein kinase 14 (Homo sapiens, UniProt Q16539). The assay can be described thus: Inhibition of human p38alpha MAPK in presence of 50 uM ATP.
Assay [17] deals with A-375. The assay can be described thus: Cytotoxicity against human A375 cells assessed as cell viability after 24 hrs by MTT assay. The class given is functional, cell-based. The note with it: A-375, 24 h.
Assay [18] relates to A-375. Description: Cell cycle arrest in human A375 cells assessed as accumulation at G2-M phase at 10 uM after 48 hrs by FACS flow cytometric analysis (reference value: 17.3%). The class given is functional.
The target in assay [19] is T3, Casein kinase I/MDM2 (Homo sapiens). The assay can be described thus: Inhibition of CK1-MDM2 complex in human A375 cells assessed as increase in p53 protein level at 5 to 40 uM compound transfected into cells using attractene carrier after 48 hrs by immunoblotting analysis. The following applies: A-375. The class given is cell-based.
Assay [20] shares this target. The assay can be described thus: Inhibition of CK1-MDM2 complex in human A375 cells assessed as decrease in MDM2 protein level at 0.2 to 40 uM after 24 hrs by immunoblotting analysis. Format: cell-based. The following applies: A-375.

T3 sequence (P48729 whole entry, looked up): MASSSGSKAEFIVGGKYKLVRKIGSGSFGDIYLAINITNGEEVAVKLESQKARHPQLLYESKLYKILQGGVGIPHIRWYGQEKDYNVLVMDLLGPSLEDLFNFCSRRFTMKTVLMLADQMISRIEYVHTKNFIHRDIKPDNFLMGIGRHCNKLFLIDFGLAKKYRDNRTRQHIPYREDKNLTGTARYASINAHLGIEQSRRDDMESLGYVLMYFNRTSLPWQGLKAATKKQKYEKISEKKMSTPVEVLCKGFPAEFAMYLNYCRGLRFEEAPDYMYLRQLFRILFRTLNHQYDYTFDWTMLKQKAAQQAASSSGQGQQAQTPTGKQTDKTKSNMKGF
T3 sequence (Q00987 whole entry, looked up): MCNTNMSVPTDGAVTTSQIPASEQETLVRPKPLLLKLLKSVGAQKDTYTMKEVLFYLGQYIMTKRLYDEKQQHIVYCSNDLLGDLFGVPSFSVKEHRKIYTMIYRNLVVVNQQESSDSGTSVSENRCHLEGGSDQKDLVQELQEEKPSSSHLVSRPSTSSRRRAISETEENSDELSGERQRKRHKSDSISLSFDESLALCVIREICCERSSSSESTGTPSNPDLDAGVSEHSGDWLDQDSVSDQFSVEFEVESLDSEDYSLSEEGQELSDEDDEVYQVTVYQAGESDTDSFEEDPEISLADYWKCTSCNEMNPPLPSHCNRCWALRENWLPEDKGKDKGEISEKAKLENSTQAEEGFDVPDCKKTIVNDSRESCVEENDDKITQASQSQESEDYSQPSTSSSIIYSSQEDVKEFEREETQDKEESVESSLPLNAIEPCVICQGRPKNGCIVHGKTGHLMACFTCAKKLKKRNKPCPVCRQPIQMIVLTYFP
Sequence of Mitogen-activated protein kinase 14 (Q16539 whole entry): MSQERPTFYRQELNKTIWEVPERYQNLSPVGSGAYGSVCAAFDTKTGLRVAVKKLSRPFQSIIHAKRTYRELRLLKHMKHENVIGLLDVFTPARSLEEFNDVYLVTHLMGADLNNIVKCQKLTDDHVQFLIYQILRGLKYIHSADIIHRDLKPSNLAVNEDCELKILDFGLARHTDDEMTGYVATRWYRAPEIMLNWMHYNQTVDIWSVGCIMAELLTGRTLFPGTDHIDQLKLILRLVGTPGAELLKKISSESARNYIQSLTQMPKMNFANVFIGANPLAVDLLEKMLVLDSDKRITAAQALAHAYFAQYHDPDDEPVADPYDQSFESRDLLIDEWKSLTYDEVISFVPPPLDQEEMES
Sequence of Serine/threonine-protein kinase pim-2 (Homo sapiens) (Q9P1W9 whole entry, looked up): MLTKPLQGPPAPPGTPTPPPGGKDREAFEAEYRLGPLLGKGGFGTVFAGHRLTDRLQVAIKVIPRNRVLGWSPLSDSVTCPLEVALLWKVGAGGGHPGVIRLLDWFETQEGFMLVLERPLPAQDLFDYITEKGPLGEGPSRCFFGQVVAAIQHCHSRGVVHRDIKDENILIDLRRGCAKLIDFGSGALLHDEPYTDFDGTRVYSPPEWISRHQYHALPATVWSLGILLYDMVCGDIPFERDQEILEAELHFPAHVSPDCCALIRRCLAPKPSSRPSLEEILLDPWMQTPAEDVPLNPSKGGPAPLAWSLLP
Sequence of MAP kinase-activated protein kinase 2 (Homo sapiens) (P49137 whole entry, looked up): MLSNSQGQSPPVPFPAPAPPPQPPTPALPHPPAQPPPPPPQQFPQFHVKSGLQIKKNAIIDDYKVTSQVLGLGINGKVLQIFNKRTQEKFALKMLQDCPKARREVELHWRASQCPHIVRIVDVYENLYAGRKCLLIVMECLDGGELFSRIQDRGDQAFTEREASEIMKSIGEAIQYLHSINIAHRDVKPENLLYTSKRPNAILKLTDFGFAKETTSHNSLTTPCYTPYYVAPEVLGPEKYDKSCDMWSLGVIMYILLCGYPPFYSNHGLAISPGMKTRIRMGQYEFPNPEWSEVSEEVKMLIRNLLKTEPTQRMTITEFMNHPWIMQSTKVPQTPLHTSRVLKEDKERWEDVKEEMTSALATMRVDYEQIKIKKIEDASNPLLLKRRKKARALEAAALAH

Turning to `CC(=O)Nc1cccc(-c2cnc3[nH]nc(C)c3c2)c1`, the result in the assay on HCT-116 was Active. For the same compound, the Activity in the assay on A-375 [1] was 9.65%; with A-375 [2], 11.6%; in the assay on A-375 [3] it was 13.7%; in [5] it was 95.6%; in assay [7] it was 79%; in [8], 82.7%. The Activity in [9] was determined as 96.4%; in the assay with A-375 [11] it was 2.37%; with A-375 [12], 5.36%; in assay [13] it was 91.7%; with A-375 [14], 25.1%; in [15], 45.3%. Besides, the Activity in the assay filed under Homo sapiens came out at 20.3%; in the assay with A-375 [18], 12.8%. Besides, the IC50 (usually the concentration at which inhibition is half-maximal) in [4] is 893 nM; in assay [6] (read-out: IC50), 232 nM; in [16], “Not Active”; in the assay on A-375 [17] it was 8000 nM. Also, the inhibition entry in assay [10] is “Active”.

With `CC(=O)Nc1nccc(-c2c(-c3ccccc3)noc2C)n1`, the Activity in the assay on A-375 [2] turned out to be 21.9%; in assay [5], 93%; in [7], 119%; in [8], 93%; in assay [9], 124%; in the assay with A-375 [12], 58.5%. Moreover, the Activity is 106% in assay [13], 91.1% in [15] and 50.8% in the assay listed under Homo sapiens. Further, the IC50 is 838 nM in assay [4], “Not Active” in assay [6] and 2040 nM in [16] (read-out: IC50). Moreover, the inhibition result in [19] was “inactive”.

For `CCCC(=O)Nc1n[nH]c2ncc(-c3cccnc3)cc12`, the inhibition entry in assay [20] was “Active”.
